Results: the supplement of paper PMC10307832

Experiments:
Test in all cases: relative viability (nuclei count vs DMSO), 5 days (fraction); higher = more cells survive
Linsitinib + Crizotinib = compound: C[C@]1(O)C[C@@H](c2nc(-c3ccc4ccc(-c5ccccc5)nc4c3)c3c(N)nccn32)C1 [Linsitinib] + C[C@@H](Oc1cc(-c2cnn(C3CCNCC3)c2)cnc1N)c1c(Cl)ccc(F)c1Cl [Crizotinib] (partner 1 µM)
Summary of the method: (§1)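 Lung cancer cell lines in 1536-well plates got either a single drug or a fixed anchor-drug dose together with five library-drug doses (not always all listed) in √10 steps, by pin tool, on the day after seeding. Nuclei were counted after 5 days, and relative viability is the treated-to-vehicle ratio of nuclei counts. Values are medians of duplicate plates.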

Linsitinib + Olaparib = compound: C[C@]1(O)C[C@@H](c2nc(-c3ccc4ccc(-c5ccccc5)nc4c3)c3c(N)nccn32)C1 [Linsitinib] + O=C(c1cc(Cc2n[nH]c(=O)c3ccccc23)ccc1F)N1CCN(C(=O)C2CC2)CC1 [Olaparib] (partner 8 µM)
Summary of the method: as §1

Ispinesib + Bortezomib = compound: Cc1ccc(C(=O)N(CCCN)[C@@H](c2nc3cc(Cl)ccc3c(=O)n2Cc2ccccc2)C(C)C)cc1 [Ispinesib] + CC(C)C[C@H](NC(=O)[C@H](Cc1ccccc1)NC(=O)c1cnccn1)B(O)O [Bortezomib] (partner 0.002 µM)
Summary of the method: as §1

Ispinesib + Decitabine = compound: Cc1ccc(C(=O)N(CCCN)[C@@H](c2nc3cc(Cl)ccc3c(=O)n2Cc2ccccc2)C(C)C)cc1 [Ispinesib] + Nc1ncn([C@H]2C[C@H](O)[C@@H](CO)O2)c(=O)n1 [Decitabine] (partner 2 µM)
Summary of the method: as §1

| Cell Line | relative viability (Linsitinib + Crizotinib; first compound 0.01 µM) | relative viability (Linsitinib + Crizotinib; first compound 0.03162 µM) | relative viability (Linsitinib + Crizotinib; first compound 0.1 µM) | relative viability (Linsitinib + Crizotinib; first compound 0.3162 µM) | relative viability (Linsitinib + Crizotinib; first compound 1 µM) | relative viability (Linsitinib + Olaparib; first compound 0.01 µM) | relative viability (Linsitinib + Olaparib; first compound 0.03162 µM) | relative viability (Linsitinib + Olaparib; first compound 0.1 µM) | relative viability (Linsitinib + Olaparib; first compound 0.3162 µM) | relative viability (Linsitinib + Olaparib; first compound 1 µM) | relative viability (Ispinesib + Bortezomib; first compound 0.001 µM) | relative viability (Ispinesib + Bortezomib; first compound 0.003162 µM) | relative viability (Ispinesib + Bortezomib; first compound 0.01 µM) | relative viability (Ispinesib + Bortezomib; first compound 0.03162 µM) | relative viability (Ispinesib + Bortezomib; first compound 0.1 µM) | relative viability (Ispinesib + Decitabine; first compound 0.001 µM) | relative viability (Ispinesib + Decitabine; first compound 0.003162 µM) | relative viability (Ispinesib + Decitabine; first compound 0.01 µM) | relative viability (Ispinesib + Decitabine; first compound 0.03162 µM) | relative viability (Ispinesib + Decitabine; first compound 0.1 µM) |
| --- | --- | --- | --- | --- | --- | --- | --- | --- | --- | --- | --- | --- | --- | --- | --- | --- | --- | --- | --- | --- |
| NCI-H1650 | 1.03 | 1.08 | 0.963 | 0.915 | 0.799 | 0.871 | 0.954 | 0.883 | 0.735 | 0.523 | 0.187 | 0.211 | 0.188 | 0.173 | 0.205 | 0.527 | 0.448 | 0.45 | 0.331 | 0.185 |
| NCI-H1651 | 0.874 | 0.93 | 0.803 | 0.735 | 0.862 | 0.18 | 0.169 | 0.191 | 0.171 | 0.178 | 0.934 | 1.16 | 0.926 | 0.796 | 0.712 | 0.582 | 0.688 | 0.67 | 0.559 | 0.508 |
| NCI-H1666 | 0.949 | 1.13 | 0.907 | 0.594 | 0.552 | 0.743 | 1.02 | 0.76 | 0.667 | 0.75 | 0.704 | 0.761 | 0.64 | 0.305 | 0.321 | 0.638 | 0.795 | 0.779 | 0.656 | 0.625 |
| NCI-H1734 | 0.592 | 0.723 | 0.719 | 0.694 | 0.462 | 0.592 | 0.625 | 0.593 | 0.57 | 0.535 | 0.943 | 0.954 | 0.997 | 0.962 | 0.328 | 0.538 | 0.528 | 0.591 | 0.54 | 0.391 |
| NCI-H1755 | 0.833 | 0.85 | 0.901 | 0.825 | 0.81 | 0.893 | 0.887 | 0.9 | 0.699 | 0.753 | 0.975 | 1.07 | 1.01 | 0.605 | 0.249 | 0.704 | 0.771 | 0.758 | 0.75 | 0.72 |
| NCI-H1792 | 1.01 | 0.96 | 0.951 | 0.764 | 0.746 | 0.341 | 0.348 | 0.373 | 0.298 | 0.172 | 1.14 | 1.02 | 1.09 | 0.797 | 0.337 | 0.548 | 0.546 | 0.725 | 0.484 | 0.238 |
| NCI-H1915 | 0.944 | 0.918 | 0.936 | 0.796 | 0.754 | 0.238 | 0.221 | 0.243 | 0.225 | 0.237 | 1.04 | 1.14 | 1.13 | 0.797 | 0.172 | 0.233 | 0.281 | 0.268 | 0.291 | 0.229 |
